Read-outs that look alike come from different tables or passages of the source.
Assays:
HTLA ER = test: DAPI and Annexin-V/PI staining (necrosis/apoptosis), HTLA ER; format: cell-based, human; settings: 24 h
Source text: (§1) Although it has been reported that diverse therapeutic approaches to counteract cancer, including chemotherapeutic drugs, gamma irradiation, suicide genes, or immunotherapy, are mediated through the induction of apoptosis, also necrosis, as well as other forms of cell death, that are not classified so far, may be triggered by anticancer therapies. Here, to evaluate if BPPB induced apoptosis or necrosis, both NB cell populations were labelled with Annexin-V-FITC/propidium iodide (PI) and analysed by confocal fluorescence microscopy, as reported in the literature. This is a standard procedure to monitor the progression of apoptosis and the possible presence of necrosis. […]
(§2) After the treatment, cells were washed with PBS and stained with the fluorescent DNA dye DAPI (1 µg/mL) for 30 min. After additional washing, the images were immediately acquired in the fluorescence mode using a Nikon AX R confocal microscope equipped with a PLAN APO 20× (Nikon Europe, B.V., Amstelveen, The Netherlands).
(§3) Apoptotic and necrotic cells were analysed, as described in Marengo et al.. […] After staining, the images were immediately acquired in fluorescence mode using a Nikon AX R confocal microscope equipped with a PLAN APO 20× (Nikon Europe, B.V., Amstelveen, The Netherlands).

RBCs = test: Haemolytic toxicity on red blood cells; format: cell-based; settings: for SI 24 h: 24 h exposure of NB cells; for SI 48 h: 48 h exposure of NB cells; for SI 72 h: 72 h exposure of NB cells
Description: The IC50 values reported in Table 3 were determined after 24, 48, and 72 h of exposure of NB cells and primary cortical astrocytes and neurons to BPPB, and the HC50 determined on RBCs after the time of experiments, as for protocol, was used to calculate the SIs according to Equation (1), as reported in Table 4.

HTLA 230 [1] = test: DAPI and Annexin-V/PI staining (necrosis/apoptosis), HTLA 230; format: cell-based, human; settings: 0.5 µM, 24 h
Source text: as §1, §2, §3

HTLA 230 [2] = test: MTS cell viability assay on HTLA 230 NB cells; format: cell-based, human; settings: for cytotoxic effects vs. HTLA 230 higher than vs. HTLA ER: from IC50 values
Description: In this section, the strong anticancer effect of BPPB against ETO-sensitive HTLA 230 and multidrug-resistant (MDR) HTLA ER neuroblastoma (NB) cells previously reported was confirmed. Cell viability in HTLA 230 and HTLA ER cells exposed to increasing concentrations of BPPB for 24, 48, and 72 h was assessed by using the MTS essay, which is an efficient, eco- and user-friendly tool, commonly used to investigate the behaviour of cancer cells when exposed to specific treatments and how these treatments influence their growth and viability.
Following this, µM concentrations (x) were transformed in Log10 (x) (Figure 1e (HTLA 230) and Figure 1f (HTLA ER), traces with indicators and error bar). The nonlinear regression models of the Log10 (BPPB concentrations) vs. the normalized response (Hill Slope) shown in Figure 1e (HTLA 230) and Figure 1f (HTLA ER), traces without indicators, elaborated by GraphPad Prism software version 8.0.1 (GraphPad Software, Boston, MA, USA), gave us the IC50 values of BPPB for both cell populations at 24, 48, and 72 h of treatment.
HTLA 230 is a MYCN-amplified human stage-IV NB cell line, obtained from the G. Gaslini Institute, Genoa, Italy. The cytogenetic features of the HTLA 230 cell line include […] MYCN amplification, del(11)t(11;Y), balanced translocation t(1;17)(p36;q21), and dup(11p), which were previously described by Pezzolo et al.. Cells were periodically tested for mycoplasma contamination (Mycoplasma Reagent Set, Aurogene s.p.a, Pavia, Italy). After thawing and eight passages in the culture, cell morphology and proliferation were analyzed. […] Both cell populations were cultured in RPMI 1640 (Euroclone SpA, Pavia, Italy) supplemented with 10% fetal bovine serum (FBS; Euroclone, Pavia, Italy), 2 mM glutamine (Euroclone, Pavia, Italy), 1% penicillin/streptomycin (Euroclone, Pavia, Italy), 1% sodium pyruvate (Sigma-Aldrich, Sant Louis, MO, USA), and 1% amino acid solution (Sigma).
To determine the cytotoxic effects of BPPB, in vitro time- and dose-dependent experiments were carried out, as recently described. Briefly, cells were treated for 24, 48, and 72 h, with increasing concentrations (0.1–2.0 µM) of the compound. […] Cell cultures were carefully monitored before and during the experiments to ensure optimal cell density.
Cell viability was determined by using the CellTiter 96® AQueous One Solution Cell Proliferation MTS Assay (Promega, Madison, WI, USA), as previously described. MTS is a colorimetric method commonly used for determining cell viability. The cell survival rate, expressed as the cell viability percentage (%), was evaluated based on the experimental outputs of treated cells vs. the untreated ones (CTRs), and was calculated as follows: cell viability (%) = (OD treated cells − OD blank)/(OD untreated cells − OD blank) × 100%. IC50 values were calculated by GraphPad Prism 8.0.1 Software (GraphPad Software v8.0, San Diego, CA, USA), as detailed in the Results and Discussion in Section 2.

Structure (SMILES): c1ccc([P+](CCCCCCCCCCCC[P+](c2ccccc2)(c2ccccc2)c2ccccc2)(c2ccccc2)c2ccccc2)cc1 [BPPB, 1,1-(1,12-dodecanediyl)-bis-[1,1,1]-triphenyl phosphonium di-bromide]
- apoptosis (Annexin V-FITC / PI labelling) (HTLA ER; 1 µM): marked apoptosis
- necrosis (DAPI labelling) (HTLA ER; 1.0 µM): did not induce the necrosis
- SI 24 h (RBCs; RBCs vs. HTLA 230): 16.81
- SI 48 h (RBCs; RBCs vs. HTLA 230): 33.66
- SI 72 h (RBCs; RBCs vs. HTLA 230): 39.98
- SI 24 h (RBCs; RBCs vs. HTLA ER): 12.56
- SI 48 h (RBCs; RBCs vs. HTLA ER): 11.49
- SI 72 h (RBCs; RBCs vs. HTLA ER): 12.98
- apoptosis (Annexin V-FITC / PI labelling) (HTLA 230 [1]): marked apoptosis
- necrosis (DAPI labelling) (HTLA 230 [1]): seemed to induce the necrosis
- cell viability (HTLA 230 [2]; 0.25 µM, 72 h): 47.6%
- cell viability (HTLA 230 [2]; 0.5 µM, 48 h): 41.8%
- cell viability (HTLA 230 [2]; 0.75 µM, 24 h): 42.5%
- concentration causing significant reduction in cells' viability (HTLA 230 [2]; 24 h): ≥ 0.5 µM
- cell viability (HTLA 230 [2]; 24 h, concentrations ≥ 0.75 µM up to 2 µM): 39.3–45.3%
- cytotoxic effects vs. HTLA 230 higher than vs. HTLA ER (HTLA 230 [2]; 24 h): 25.3%
- IC50 (HTLA 230 [2]; 24 h exposure, 0.1–2 µM, read-out: IC50 HTLA 230): 926 ± 164 nM
- concentration causing significant reduction in cells' viability (HTLA 230 [2]; 48 h): ≥ 0.1 µM
- cell viability (HTLA 230 [2]; 48 h, concentrations ≥ 0.5 µM up to 2 µM): 36.2–41.9%
- cytotoxic effects vs. HTLA 230 higher than vs. HTLA ER (HTLA 230 [2]; 48 h): 65.9%
- IC50 (HTLA 230 [2]; 48 h exposure, 0.1–2 µM, read-out: IC50 HTLA 230): 462 ± 103 nM
- concentration causing significant reduction in cells' viability (HTLA 230 [2]; 72 h): ≥ 0.25 µM
- cytotoxic effects vs. HTLA 230 higher than vs. HTLA ER (HTLA 230 [2]; 72 h): 67.5%
- cell viability (HTLA 230 [2]; 72 h, lowest value reached with increasing concentrations (up to 2 µM)): 21.7%
- IC50 (HTLA 230 [2]; 72 h exposure, 0.1–2 µM, read-out: IC50 HTLA 230): 389 ± 83.6 nM
- more cytotoxic than TiO2-Ta nanoparticles (HTLA 230 [2]; HTLA 230 and HTLA ER vs. SH-SY5Y, 24 h): 64–86 fold
- anticancer effects higher than compound 3 with PDT/SDT (HTLA 230 [2]; HTLA 230 and HTLA ER, 24 h): 10.3–14.7 times
- more potent than Ag20Pep (HTLA 230 [2]; HTLA 230 and HTLA ER, 24 h): 105–143 times
- more potent than Ag40Pep (HTLA 230 [2]; HTLA 230 and HTLA ER, 24 h): 132–182 times
- more potent than Ag20Pep (HTLA 230 [2]; HTLA 230 and HTLA ER, 48 h): 18–54 times
- more potent than Ag40Pep (HTLA 230 [2]; HTLA 230 and HTLA ER, 48 h): 29–90 times
- cytotoxicity higher than that of compounds 9–13 of Skrzypczak et al. (HTLA 230 [2]; HTLA 230 and HTLA ER, 72 h): 1.7–5.1 fold
- more cytotoxic than AgNPs (HTLA 230 [2]; HTLA 230 and HTLA ER, 72 h): 4–30 times
- IC50 (HTLA 230 [2]; over 24, 48, 72 h exposure, read-out: IC50 values towards drug-sensitive HTLA 230): 400 to 900 nM
